The NIST ThermoML archive (doi:10.1016/j.fluid.2008.08.012)
Numbers after ± are expanded uncertainties.

Key:
[1] = for mass density: 298.15 K, 101.33 kPa; for mass density / vapor or sublimation pressure: Liquid; for surface tension liquid-gas: 303.15 K, Maximal bubble pressure; for vapor or sublimation pressure: Ebulliometric method (Recirculating still)
[2] = refractive index (Na D-line) (dimensionless); details: 298.15 K; 101.33 kPa; Liquid; Standard Abbe refractometry
[3] = xn = mol fraction of the nth substance listed; details: 303.15 K, Maximal bubble pressure

CC(C)=O [acetone]
Details | mass density [kg/m3] | refractive index | surface tension liquid-gas [mN/m]
[1] | 784.23 ± 0.24 | – | 22.45 ± 0.26
[2] | – | 1.35732 ± 0.00031 | –

Details | vapor or sublimation pressure [kPa]
[1], 327.16 K | 94 ± 0.2

COC(C)(C)C [2-methoxy-2-methylpropane]
Details | mass density [kg/m3] | refractive index | surface tension liquid-gas [mN/m]
[1] | 735.45 ± 0.27 | – | 18.7 ± 0.25
[2] | – | 1.36766 ± 0.00031 | –

[1]
Details | vapor or sublimation pressure [kPa]
301.31 K | 38.06 ± 0.09
303.21 K | 41.03 ± 0.09
305.59 K | 45.05 ± 0.09
308.33 K | 50.06 ± 0.1
310.85 K | 55.05 ± 0.1
313.2 K | 60.06 ± 0.11
315.39 K | 65.03 ± 0.11
317.47 K | 70.07 ± 0.12
319.41 K | 75.05 ± 0.12
321.27 K | 80.08 ± 0.13
323.02 K | 85.05 ± 0.13
324.7 K | 90.06 ± 0.14
325.98 K | 94 ± 0.14
326.31 K | 95.05 ± 0.14
328.24 K | 101.34 ± 0.14

COC(C)(C)C [2-methoxy-2-methylpropane] + C1CCCCC1
[3]
Details | surface tension liquid-gas [mN/m]
x1 = 0.046 | 23.39 ± 0.24
x1 = 0.1 | 22.97 ± 0.24
x1 = 0.205 | 22.23 ± 0.23
x1 = 0.308 | 21.57 ± 0.23
x1 = 0.409 | 21.03 ± 0.23
x1 = 0.51 | 20.58 ± 0.22
x1 = 0.614 | 20.12 ± 0.22
x1 = 0.716 | 19.71 ± 0.22
x1 = 0.816 | 19.34 ± 0.22
x1 = 0.901 | 19.05 ± 0.21
x1 = 0.947 | 18.89 ± 0.21

C1CCCCC1 [cyclohexane]
Details | mass density [kg/m3] | refractive index | surface tension liquid-gas [mN/m]
[1] | 773.84 ± 0.24 | – | 24.1 ± 0.26
[2] | – | 1.42508 ± 0.00031 | –

Details | vapor or sublimation pressure [kPa]
[1], 351.37 K | 94 ± 0.2

COC(C)(C)C [2-methoxy-2-methylpropane] + CC(C)=O
[3]
Details | surface tension liquid-gas [mN/m]
x1 = 0.031 | 22.14 ± 0.23
x1 = 0.074 | 21.76 ± 0.23
x1 = 0.171 | 21.13 ± 0.23
x1 = 0.272 | 20.59 ± 0.22
x1 = 0.378 | 20.09 ± 0.22
x1 = 0.484 | 19.75 ± 0.22
x1 = 0.585 | 19.47 ± 0.22
x1 = 0.681 | 19.22 ± 0.22
x1 = 0.784 | 18.98 ± 0.21
x1 = 0.884 | 18.74 ± 0.21
x1 = 0.94 | 18.55 ± 0.21
